Source: patent publication US7982038B2 (priority 2003, dated 2011)

Target: α7 nAChR subtype (Rattus norvegicus, UniProt Q05941)
Assay type: binding
Conditions: read-out: KD (saturation curve, one site model)

α7 nAChR subtype, sequence (Q05941 23-502 limits assumed): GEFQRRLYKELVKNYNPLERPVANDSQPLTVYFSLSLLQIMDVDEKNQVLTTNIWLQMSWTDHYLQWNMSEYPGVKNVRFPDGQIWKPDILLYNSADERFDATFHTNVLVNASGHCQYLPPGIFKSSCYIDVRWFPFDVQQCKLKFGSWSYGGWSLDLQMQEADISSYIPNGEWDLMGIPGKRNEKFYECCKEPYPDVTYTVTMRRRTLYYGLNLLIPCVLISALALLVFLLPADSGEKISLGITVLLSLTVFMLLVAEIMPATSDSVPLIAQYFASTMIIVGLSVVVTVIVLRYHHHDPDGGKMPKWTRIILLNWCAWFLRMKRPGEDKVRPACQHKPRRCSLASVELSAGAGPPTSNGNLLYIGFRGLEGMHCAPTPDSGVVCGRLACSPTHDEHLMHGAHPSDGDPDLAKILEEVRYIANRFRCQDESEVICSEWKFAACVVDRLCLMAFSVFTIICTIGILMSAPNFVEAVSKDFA

Substance: [^125I]-α-Bungarotoxin [^125I-α-BTX]
- Kd: 1.67 nM
